{
  "source": "patent US4145554A",
  "about": "“3-Nitropyrazole derivatives” (Eli Lilly and Company, priority 1977, dated 1979)",
  "key": {"Escherichia coli [1]": {"tested_on": "Escherichia coli", "assay": "in vitro tube dilution test (MIC)", "assay_type": "cell-based", "conditions": "tube dilution, read-out: MIC", "procedure,_shortened": "(§1)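 Standard tube dilution test; MIC reported as micrograms of compound per milliliter.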"}, "Mycoplasma gallisepticum": {"tested_on": "Mycoplasma gallisepticum", "assay": "in vitro tube dilution test (MIC)", "assay_type": "cell-based", "conditions": "Mycoplasmoides gallisepticum; Mycoplasma galliseptioum, tube dilution; read-out: MIC", "procedure,_shortened": "as §1"}, "Mycoplasma synoviae": {"tested_on": "Mycoplasma synoviae", "assay": "in vitro tube dilution test (MIC)", "assay_type": "cell-based", "conditions": "Mycoplasmopsis synoviae, Mycoplasma synoviae", "procedure,_shortened": "as §1"}, "Mycoplasma hyorhinis": {"tested_on": "Mycoplasma hyorhinis", "assay": "in vitro tube dilution test (MIC)", "assay_type": "cell-based"}, "Pseudomonas sp.": {"tested_on": "Pseudomonas sp.", "assay": "in vitro tube dilution test (MIC)", "assay_type": "cell-based"}, "[2]": {"tested_on": "Salmonella heidelburg 1593", "assay": "in vitro tube dilution test (MIC)", "assay_type": "cell-based", "conditions": "Salmonella heidelburg 1593 (turkey pancreas), tube dilution"}, "Salmonella pullorum Ill.": {"tested_on": "Salmonella pullorum Ill.", "assay": "in vitro tube dilution test (MIC)", "assay_type": "cell-based", "conditions": "Salmonella enterica"}, "[3]": {"tested_on": "Salmonella typhimurium 1335", "assay": "in vitro tube dilution test (MIC)", "assay_type": "cell-based", "conditions": "Salmonella enterica; Salmonella typhimurium 1335 (turkey intestine), tube dilution"}, "Pasteurella multocida": {"tested_on": "Pasteurella multocida", "assay": "in vitro tube dilution test (MIC)", "assay_type": "cell-based", "conditions": "tube dilution, read-out: MIC", "procedure,_shortened": "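Standard tube dilution test; MIC is the lowest compound concentration controlling growth, given in μg/mL.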"}, "Pasteurella hemolytica": {"tested_on": "Pasteurella hemolytica", "assay": "in vitro tube dilution test (MIC)", "assay_type": "cell-based"}, "Treponema hyodysenteriae": {"tested_on": "Treponema hyodysenteriae", "assay": "in vitro tube dilution test (MIC)", "assay_type": "cell-based", "conditions": "Brachyspira hyodysenteriae"}, "Mycoplasma hyopneumoniae": {"tested_on": "Mycoplasma hyopneumoniae", "assay": "in vitro tube dilution test (MIC)", "assay_type": "cell-based", "conditions": "Mesomycoplasma hyopneumoniae"}, "[4]": {"tested_on": "Bordetella bronchiseptica", "assay": "in vitro tube dilution test (MIC)", "assay_type": "cell-based"}, "Streptococcus sp.": {"tested_on": "Streptococcus sp.", "assay": "in vitro tube dilution test (MIC)", "assay_type": "cell-based"}, "Hemophilus gallinarum": {"tested_on": "Hemophilus gallinarum", "assay": "in vitro tube dilution test (MIC)", "assay_type": "cell-based"}, "Hemophilus somnus": {"tested_on": "Hemophilus somnus", "assay": "in vitro tube dilution test (MIC)", "assay_type": "cell-based"}, "Clostridium perfringens": {"tested_on": "Clostridium perfringens", "assay": "microbe, parasite or virus in culture", "assay_type": "cell-based"}, "Salmonella pullorum 9-27": {"tested_on": "Salmonella pullorum 9-27", "assay": "in vitro tube dilution test (MIC)", "assay_type": "cell-based", "conditions": "Salmonella enterica; Salmonella pullorum 9-27, tube dilution"}, "Citrobacter freundii": {"tested_on": "Citrobacter freundii", "assay": "agar dilution technique (MIC)", "assay_type": "cell-based"}, "Escherichia coli [5]": {"tested_on": "Escherichia coli", "assay": "agar dilution technique (MIC)", "assay_type": "cell-based"}, "Hemophilus influenzae": {"tested_on": "Hemophilus influenzae", "assay": "agar dilution technique (MIC)", "assay_type": "cell-based", "conditions": "Haemophilus influenzae"}, "Serratia sp.": {"tested_on": "Serratia sp.", "assay": "agar dilution technique (MIC)", "assay_type": "cell-based"}, "Streptococcus pyogenes [6]": {"tested_on": "Streptococcus pyogenes", "assay": "agar dilution technique (MIC)", "assay_type": "cell-based"}, "Streptococcus pyogenes [7]": {"tested_on": "Streptococcus pyogenes", "assay": "Tests in mice, Streptococcus pyogenes infection", "assay_type": "in vivo", "conditions": "S. pyogenes", "experimental": "Groups of laboratory mice were inoculatd with E. coli or with Streptococcus pyogenes. The 3-nitropyrazoles were administered in two different modes to the infected mice. In one group of tests, the compound was administered in two subcutaneous doses of 83 mg./kg. each, given 1 and 5 hours after the mice were inoculated with the organism. The mice were observed, and the results reported below as the number of days the treated mice survived the challenge.\nIn the other group of tests, the dose of each compound which allowed 50 percent of the treated mice to survive the challenge was determined. Again, the compound was administered in subcutane divided doses, 1 and 5 hours post-inoculation."}, "P. multocida": {"tested_on": "P. multocida", "assay": "Mice infected with P. multocida, compound injected subcutaneously", "assay_type": "in vivo", "conditions": "2.5 mg./kg. subcutaneous", "experimental": "A second test was conducted in much the same way, except that the 3-nitropyrazole was injected to the treated mice subcutaneously at the same time they were infected with the P. multocida culture."}, "[8]": {"tested_on": "naturally-occurring pneumoenteritis complex infection (pasteurella species, E. coli and salmonellae)", "assay": "Pneumoenteritis complex disease in calves, first test", "assay_type": "in vivo", "conditions": "for Mortality / Avg. Wt. Gain: milk replacer, 56 days; for Avg. Wt. Gain: survivors", "experimental": "Our compound, 1-(2-hydroxyethyl)-3-nitro-4-pyrazolecarboxamide, was evaluated in the control of a naturally-occurring pneumoenteritis complex infection of calves. […] A group of 24 calves was allocated randomly into three treatment groups. The average weights of the treatment groups were nearly identical at the start of the experiment. The calves were housed in quarters which were kept as clean as typical calf quarters, but in which calves suffering from pneumoenteritis complex had previously been housed. […] One group was a control group, and was fed on a typical milk replacer diet. The other two groups received 200 mg. and 400 mg. per day respectively of the 3-nitro-pyrazole compound, mixed in their milk replacer diets.\nThe calves were carefully observed daily to detect signs of illness as quickly as such signs appeared. The calves were weighed at weekly intervals. Various organs were removed from the calves which died during the experiment, and cultures were prepared from the organs to identify microorganisms. At the end of the 56-day experiment, cultures were prepared from nasal and rectal swabs of the surviving calves, and microorganisms in the cultures were identified."}, "[9]": {"conditions": "200 mg./day/calf (3-5 mg./kg./day)"}, "[10]": {"conditions": "400 mg./day/calf (6-10 mg./kg./day)"}},
  "note": "Like-named read-outs stand apart in the source and are kept apart here.",
  "data": [
    {"smiles": "NC(=O)c1cn(CCO)nc1[N+](=O)[O-]", "note": "[Compound 32, 1-(2-hydroxyethyl)-3-nitro-4-pyrazolecarboxamide]", "values": [
      {"measurement": "MIC", "setting": "Escherichia coli [1]", "result": 3.12, "unit": "µg/mL"},
      {"measurement": "MIC", "setting": "Mycoplasma gallisepticum", "result": 0.78, "unit": "µg/mL"},
      {"measurement": "MIC", "setting": "Mycoplasma synoviae", "result": 50, "unit": "µg/mL"},
      {"measurement": "MIC", "setting": "Mycoplasma hyorhinis", "result": 50, "unit": "µg/mL"},
      {"measurement": "MIC", "setting": "Pseudomonas sp.", "result": 12.5, "unit": "µg/mL"},
      {"measurement": "MIC", "setting": "[2]", "result": "< 1.56", "unit": "µg/mL"},
      {"measurement": "MIC", "setting": "Salmonella pullorum Ill.", "result": "< 1.56", "unit": "µg/mL"},
      {"measurement": "MIC", "setting": "[3]", "result": 6.25, "unit": "µg/mL"},
      {"measurement": "MIC", "setting": "Pasteurella multocida; Cattle Isolates", "result": "< 1.56", "unit": "µg/mL"},
      {"measurement": "MIC", "setting": "Pasteurella multocida; Swine Isolate (first line)", "result": "> 50", "unit": "µg/mL"},
      {"measurement": "MIC", "setting": "Pasteurella multocida; Swine Isolate (second line)", "result": 6.25, "unit": "µg/mL"},
      {"measurement": "MIC", "setting": "Pasteurella multocida; Turkey Isolates", "result": "> 50", "unit": "µg/mL"},
      {"measurement": "MIC", "setting": "Pasteurella hemolytica", "result": "< 1.56", "unit": "µg/mL"},
      {"measurement": "MIC", "setting": "Treponema hyodysenteriae", "result": 3.12, "unit": "µg/mL"},
      {"measurement": "MIC", "setting": "Mycoplasma hyopneumoniae", "result": 50, "unit": "µg/mL"},
      {"measurement": "MIC", "setting": "[4]", "result": 25, "unit": "µg/mL"},
      {"measurement": "MIC", "setting": "Streptococcus sp.", "result": 25, "unit": "µg/mL"},
      {"measurement": "MIC", "setting": "Hemophilus gallinarum", "result": 0.78, "unit": "µg/mL"},
      {"measurement": "MIC", "setting": "Hemophilus somnus", "result": "> 100", "unit": "µg/mL"},
      {"measurement": "MIC", "setting": "Clostridium perfringens", "result": "25 to 50", "unit": "µg/mL"},
      {"measurement": "MIC", "setting": "Salmonella pullorum 9-27", "result": "< 1.56", "unit": "µg/mL"},
      {"measurement": "MIC", "setting": "Citrobacter freundii", "result": 8, "unit": "µg/mL"},
      {"measurement": "MIC", "setting": "Escherichia coli [5]", "result": 8, "unit": "µg/mL"},
      {"measurement": "MIC", "setting": "Hemophilus influenzae", "result": 4, "unit": "µg/mL"},
      {"measurement": "MIC", "setting": "Serratia sp.", "result": 32, "unit": "µg/mL"},
      {"measurement": "MIC", "setting": "Streptococcus pyogenes [6]", "result": 32, "unit": "µg/mL"},
      {"measurement": "Days Survived", "setting": "Streptococcus pyogenes [7]; two subcutaneous doses of 83 mg./kg., 1 and 5 hours", "result": 5.0, "unit": "days"},
      {"measurement": "ED50", "setting": "Streptococcus pyogenes [7]; Streptococcus pyogenes, sc, subcutaneous, 1 and 5 hours post-inoculation", "result": 53.7, "unit": "mg/kg"},
      {"measurement": "Survival", "setting": "P. multocida", "result": "8/10"},
      {"measurement": "Mortality", "setting": "[8]; [9]", "result": "1/8"},
      {"measurement": "Avg. Wt. Gain", "setting": "[8]; [9]", "result": 36.6, "unit": "lbs."},
      {"measurement": "Mortality", "setting": "[8]; [10]", "result": "1/8"},
      {"measurement": "Avg. Wt. Gain", "setting": "[8]; [10]", "result": 55.3, "unit": "lbs."},
      {"measurement": "surviving treated calves with P. multocida or hemolytica in nasal swabs", "setting": "[8]; 200 and 400 mg. per day groups, end of 56 days", "result": "11 of the 14 surviving treated calves"},
      {"measurement": "surviving calves with E. coli in rectal swabs", "setting": "[8]; of 14 surviving treated calves, end of 56 days", "result": "12 of the surviving calves"}
    ]}
  ]
}
